The target in one data set is T1, hERG channel (Homo sapiens, UniProt Q12809).
T1 construct: host or cells: CHO cells, stably transfected
The experiment in a line: hERG assay, whole cell recordings in CHO cells (AVIVA). Type of data set: cell-based. Particulars: CHO cells stably expressing hERG, pH 7.4. As for the experimental part:
The most common mechanism for these adverse events is the inhibition of one or more cardiac potassium channels, in particular hERG. This current is important for cardiac myocyte repolarization and is a common target for drugs that prolong the QT interval. Test articles in this study were therefore characterized to determine their ability to inhibit the hERG channel. Ion channel activity was measured at AVIVA Biosciences Corporation (San Diego, CA), using a stably transfected Chinese Hamster Ovary (CHO) cell line expressing the hERG mRNA.
Cells: AVIVA's CHO cell line, which stably expresses hERG channels, was used for the study. Cells were cultured in DMEM/F12 containing 10% FBS, 1% penicillin/streptomycin and 500 μg/ml G418. Before testing, cells were harvested using Accumax (Innovative Cell Technologies).
Solutions: For electrophysiological recordings, the following solutions were used: External Solution: 2 mM CaCl2); 2 mM MgCl2; 4 mM KCl; 150 mM NaCl; 10 mM Glucose; 10 mM HEPES; 305-315 mOsm; pH 7.4 (adjusted with 5M NaOH); Internal Solution: 140 mM KCl; 10 mM MgCl2; 6 mM EGTA; 5 mM HEPES-Na; 5 mM ATP-Mg; 295-305 mOsm; pH 7.25 (adjusted with 1M KOH).
Electrophysiology: Whole cell recordings were performed using PX 7000A (Axon Instruments) with AVIVA's SealChip™ technology. Cells were voltage clamped at a holding potential of −80 mV. The hERG current was then activated by a depolarizing step to −50 mV for 300 ms. This first step at −50 mV was used as a baseline for measuring peak amplitude of the tail current. Next, a voltage step to +20 mV was applied for 5 s to activate the channels. Finally, a step back to −50 mV for 5 s removed activation and the deactivating tail current was recorded.
Test Article Handling and Dilutions: All test articles were prepared from 10 mM DMSO stock solutions provided by Sponsor. Solutions were mixed by sonication for 20 min, followed by vigorous vortexing. Prior to testing, compounds were diluted to test concentrations in glass vials using External Solution. Dilutions were prepared no longer than 20 min prior to use.
Electrophysiology Procedures: After achieving whole cell configuration, cells were monitored for 90 s to assess stability and then washed with External Solution for 66 s. The voltage protocol previously described was then applied to the cells every 12 s throughout the procedure. Only stable cells with recording parameters above threshold (see Quality Control section) were allowed to enter the drug addition procedure. External solution containing 0.1% DMSO (vehicle) was applied to the cells to establish a baseline. […] Test article solutions were added to cells in 4 separate additions. Cells were kept in test solution until effect of the test article reached steady state, to a maximum of 12 min. Next, 1 μM cisapride (positive control) was added. Finally, washout with External Solution was performed until the recovery current reached steady state.
Data Analysis: Data analysis was performed using DataXpress (Axon Instruments), Clampfit (Axon Instruments) and Origin (OriginLab Corporation) software.
(Block of hERG is tested as a sign of cardiac risk.)

The next data set has as its target 5HT2A (Homo sapiens, UniProt P28223). The experiment in a line: Receptor Selection and Amplification (R-SAT) functional assay. It is filed as cell-based. Also on record: expressed in transfected cells; host or cells: NIH3T3 cells, pSI mammalian expression vector. Particulars: NIH3T3 cells, Ki from IC50 by Cheng and Prussoff; for Ki: read-out: 5-HT2a (pKi) (R-SAT) (converted). An excerpt:
Receptor Selection and Amplification (R-SAT) Assays. […] The IC50 determined in the RSAT assay was converted into a Ki value using the method of Cheng and Prussoff, Biochem Pharmacol., 1973 Dec. 1; 22(23):3099-108. pKi is the negative of the log(Ki).

Experimental findings from US12139477B2, “Compounds, salts thereof and methods for treatment of diseases” (ACADIA PHARMACEUTICALS INC., priority 2017, dated 2024) are described below.

Broadly, the inhibition is the percentage by which the read-out fell short of the control. High values mean strong suppression, low ones little suppression.

5HT2A, sequence (P28223 whole entry): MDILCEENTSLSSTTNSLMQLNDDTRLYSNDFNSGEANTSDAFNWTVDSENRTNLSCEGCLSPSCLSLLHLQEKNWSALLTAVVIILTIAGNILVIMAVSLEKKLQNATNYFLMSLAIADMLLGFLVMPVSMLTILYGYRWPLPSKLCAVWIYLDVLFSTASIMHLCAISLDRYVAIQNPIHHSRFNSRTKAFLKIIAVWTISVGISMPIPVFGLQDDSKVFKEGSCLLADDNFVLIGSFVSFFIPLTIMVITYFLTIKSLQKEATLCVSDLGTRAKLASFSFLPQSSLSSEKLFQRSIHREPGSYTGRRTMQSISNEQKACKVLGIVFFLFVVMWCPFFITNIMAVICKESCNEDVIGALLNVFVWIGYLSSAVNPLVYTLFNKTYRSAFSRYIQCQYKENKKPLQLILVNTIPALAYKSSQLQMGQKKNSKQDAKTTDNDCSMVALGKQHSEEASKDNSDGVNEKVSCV
T1 sequence (Q12809 whole entry): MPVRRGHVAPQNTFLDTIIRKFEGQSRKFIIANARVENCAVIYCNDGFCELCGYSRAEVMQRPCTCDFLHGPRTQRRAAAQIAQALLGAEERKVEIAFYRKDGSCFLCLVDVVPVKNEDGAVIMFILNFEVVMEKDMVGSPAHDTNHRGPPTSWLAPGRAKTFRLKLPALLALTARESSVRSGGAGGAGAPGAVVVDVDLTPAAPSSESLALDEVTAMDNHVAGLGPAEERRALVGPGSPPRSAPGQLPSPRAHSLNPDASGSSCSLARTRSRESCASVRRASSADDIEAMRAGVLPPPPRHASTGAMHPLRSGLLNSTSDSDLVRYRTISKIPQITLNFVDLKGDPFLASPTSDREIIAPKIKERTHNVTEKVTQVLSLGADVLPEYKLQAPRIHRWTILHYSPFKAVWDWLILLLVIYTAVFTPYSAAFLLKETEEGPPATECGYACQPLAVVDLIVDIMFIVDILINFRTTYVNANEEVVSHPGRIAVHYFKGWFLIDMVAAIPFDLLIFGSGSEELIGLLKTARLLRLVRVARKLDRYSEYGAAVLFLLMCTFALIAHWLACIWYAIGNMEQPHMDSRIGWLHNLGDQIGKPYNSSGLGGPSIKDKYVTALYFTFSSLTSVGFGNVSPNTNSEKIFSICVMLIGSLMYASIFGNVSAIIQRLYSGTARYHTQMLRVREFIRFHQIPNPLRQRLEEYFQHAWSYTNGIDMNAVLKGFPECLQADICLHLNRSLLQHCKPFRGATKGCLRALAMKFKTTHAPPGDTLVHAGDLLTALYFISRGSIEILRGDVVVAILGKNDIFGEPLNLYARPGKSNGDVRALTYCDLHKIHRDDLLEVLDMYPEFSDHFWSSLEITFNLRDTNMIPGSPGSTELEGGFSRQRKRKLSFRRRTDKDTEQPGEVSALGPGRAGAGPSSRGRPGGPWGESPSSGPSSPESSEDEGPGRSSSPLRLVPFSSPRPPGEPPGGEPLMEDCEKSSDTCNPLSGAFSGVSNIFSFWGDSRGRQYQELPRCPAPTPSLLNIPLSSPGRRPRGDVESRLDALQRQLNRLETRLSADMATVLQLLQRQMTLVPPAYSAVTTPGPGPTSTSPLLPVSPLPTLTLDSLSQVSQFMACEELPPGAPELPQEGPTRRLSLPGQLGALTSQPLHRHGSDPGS

The compound `Cc1cc(CNC(=O)N(Cc2ccc(F)cc2F)C2CCN(C)CC2)ccc1OC(C)C` [Example 145, 1-[(2,4-difluorophenyl)methyl]-3-{[3-methyl-4-(propan-2-yloxy)phenyl]methyl}-1-(1-methylpiperidin-4-yl)urea; Trifluoroacetic Acid] registered an inhibition at 1 µM against hERG channel of 39%. For the same compound, the Ki at 5HT2A is 1.58 nM. For `CC(C)(C)Oc1ccc(CNC(=O)N(Cc2ccc(F)cc2F)C2CCNCC2)cc1` [Example 149, 3-{[4-(tert-butoxy)phenyl]methyl}-1-[(2,4-difluorophenyl)methyl]-1-(piperidin-4-yl)urea; Trifluoroacetic Acid] the same measures were 40% and 1 nM. For `CC(C)COc1ccc(CNC(=O)N(Cc2ccc(F)cc2Cl)C2CCN(C)CC2)cc1` [Example 62] the same measures were 32% and 79.4 nM. For `CN1CCC(N(Cc2ccc(F)cc2F)C(=O)NCc2ccc3c(c2)C=CC(C)(C)O3)CC1` [Example 155, 1-[(2,4-difluorophenyl)methyl]-3-[(2,2-dimethyl-2H-chromen-6-yl)methyl]-1-(1-methylpiperidin-4-yl)urea; Trifluoroacetic Acid] the same measures were 47% and 0.158 nM. On hERG channel, `CN1CCC(N(Cc2ccc(F)cc2F)C(=O)NCc2ccc(C(C)(F)F)cc2)CC1` [Example 152, 1-{[4-(1,1-difluoroethyl)phenyl]methyl}-3-[(2,4-difluorophenyl)methyl]-3-(1-methylpiperidin-4-yl)urea; Trifluoroacetic Acid] came in with an inhibition at 1 µM of 38%. Further, the Ki on 5HT2A is 2.51 nM. On hERG channel, `CN1CCC(N(Cc2ccc(F)cc2F)C(=O)NCc2ccc(OC(C)(C)C)cc2)CC1` [Example 18, 3-{[4-(tert-butoxy)phenyl]methyl}-1-[(2,4-difluorophenyl)methyl]-1-(1-methylpiperidin-4-yl)urea] returned an inhibition at 1 µM of 17%. Besides, the Ki at 5HT2A is 0.316 nM. For `CN1CCC(N(Cc2ccc(F)cc2F)C(=O)NCc2ccc3c(c2)OCCOC3)CC1` [Example 52] the same measures were 8% and 39.8 nM. The matching figures for `CC(C)COc1ccc(CNC(=O)N(Cc2ccc(Cl)cc2Cl)C2CCN(C)CC2)cc1` [Example 107, 1-[(2,4-dichlorophenyl)methyl]-1-(1-methylpiperidin-4-yl)-3-{[4-(2-methylpropoxy)phenyl]methyl}urea]: 43% and 126 nM.

Turning to `O=C(NCc1ccc(OC2CC2)cc1)N(Cc1ccc(F)cc1F)C1CCNCC1` [Example 157, 1-[(4-cyclopropoxyphenyl)methyl]-3-[(2,4-difluorophenyl)methyl]-3-(piperidin-4-yl)urea; Trifluoroacetic Acid], the inhibition at 1 µM at hERG channel worked out at 20%. Further, the Ki on 5HT2A is 0.631 nM.

Compound `CCOc1ccc(CNC(=O)N(Cc2ccc(F)cc2F)C2CCN(C)CC2)cc1` [Example 16, 1-[(2,4-difluorophenyl)methyl]-3-[(4-ethoxyphenyl)methyl]-1-(1-methylpiperidin-4-yl)urea] gave an inhibition at 1 µM at hERG channel of 29%. On 5HT2A, the Ki is 2 nM.

Compound `CN1CCC(N(Cc2ccc(F)cc2F)C(=O)NCc2ccc3c(c2)n(C)c(=O)n3C)CC1` [Example 40] registered an inhibition at 1 µM against hERG channel of 9%. Same read-out and setting: under `COc1cc(F)c(F)cc1CN(C(=O)NCc1ccc(OC(C)C)cc1)C1CCN(C)CC1` [Example 138, 1-[(4,5-difluoro-2-methoxyphenyl)methyl]-1-(1-methylpiperidin-4-yl)-3-{[4-(propan-2-yloxy)phenyl]methyl}urea; Trifluoroacetic Acid] stands 13%; under `CN1CCC(N(Cc2ccc(F)cc2F)C(=O)NCc2ccc3cn[nH]c3c2)CC1` [Example 41], 23%.

In turn, `CN1CCC(N(Cc2ccc(F)cc2F)C(=O)NCc2ccc3c(c2)ncn3C)CC1` [Example 55] gave an inhibition at 1 µM against hERG channel of 10%. In the case of `O=C(O)C(F)(F)F.[2H]C([2H])([2H])N1CCC(N(Cc2ccc(F)cc2F)C(=O)NCc2ccc(OC(C)C)cc2)CC1` [Example 131, 1-[(2,4-difluorophenyl)methyl]-1-[1-(^2H3)methylpiperidin-4-yl]-3-{[4-(propan-2-yloxy)phenyl]methyl}urea; Trifluoroacetic Acid], the Ki at 5HT2A was 0.631 nM. Still for that read-out and setting: in the case of `CC(C)COc1ccc(CNC(=O)N(Cc2ccc(C(F)(F)F)cc2F)C2CCN(C)CC2)cc1` [Example 68] it was 20 nM; in that of `COc1ccc(CN(C(=O)NCc2ccc(OC(C)C)cc2)C2CCN(C)CC2)c(F)c1` [Example 122, 1-[(2-fluoro-4-methoxyphenyl)methyl]-1-(1-methylpiperidin-4-yl)-3-{[4-(propan-2-yloxy)phenyl]methyl}urea; Trifluoroacetic Acid], 7.94 nM. Same read-out and setting: under `COc1ccc(CN(C(=O)NCc2ccc(OCC(C)C)cc2)C2CCN(C)CC2)c(C(F)(F)F)c1` [Example 121, 3-{[4-methoxy-2-(trifluoromethyl)phenyl]methyl}-3-(1-methylpiperidin-4-yl)-1-{[4-(2-methylpropoxy)phenyl]methyl}urea] stands 126 nM; under `CCCCOc1ccc(CNC(=O)N(Cc2ccc(F)cc2F)C2CCN(C)CC2)cc1` [Example 124, 3-[(4-butoxyphenyl)methyl]-1-[(2,4-difluorophenyl)methyl]-1-(1-methylpiperidin-4-yl)urea], 10 nM. As to `CCOc1ccc(CNC(=O)N(Cc2ccc(F)cc2F)C2CCNCC2)cc1.CCOc1ccc(CNC(=O)N(Cc2ccc(F)cc2F)C2CCNCC2)cc1.O=C(O)C(O)C(O)C(=O)O` [Example 127, 3-[(2,4-difluorophenyl)methyl]-1-[(4-ethoxyphenyl)methyl]-3-(piperidin-4-yl)urea; Hemitartrate], the “5-HT2a (pKi) (R-SAT)” value on 5HT2A is reported as 8.2. On to `Cc1nc2cc(CNC(=O)N(Cc3ccc(F)cc3F)C3CCN(C)CC3)ccc2o1` [Example 22], for which the inhibition at 1 µM against hERG channel is 10%. For the compound `COc1ccc(CN(C(=O)NCc2ccc(OCC(C)C)cc2)C2CCN(C)CC2)c(Cl)c1` [Example 105, 1-[(2-chloro-4-methoxyphenyl)methyl]-1-(1-methylpiperidin-4-yl)-3-{[4-(2-methylpropoxy)phenyl]methyl}urea; Trifluoroacetic Acid], the Ki at 5HT2A is 100 nM. Turning to `CN1CCC(N(Cc2ccc(F)cc2F)C(=O)NCc2ccc(F)cc2OC(F)(F)F)CC1` [Example 99, 1-[(2,4-difluorophenyl)methyl]-3-{[4-fluoro-2-(trifluoromethoxy)phenyl]methyl}-1-(1-methylpiperidin-4-yl)urea; Trifluoroacetic Acid], the Ki on 5HT2A is 79.4 nM. Same read-out and setting: in the case of `CC(C)C(C)(O)COc1ccc(CNC(=O)N(Cc2ccc(F)cc2F)C2CCN(C)CC2)cc1` (stereo not shown) [Example 87, 1-[(2,4-difluorophenyl)methyl]-3-{[4-(2-hydroxy-2,3-dimethylbutoxy)phenyl]methyl}-1-(1-methylpiperidin-4-yl)urea; Trifluoroacetic Acid] it was 10 nM; in that of `CN1CCC(N(Cc2ccc(F)cc2F)C(=O)NCc2ccc(F)cc2)CC1` [Example 49], 6.31 nM.

With `CC(C)COc1ccc(CNC(=O)N(Cc2cccc(F)c2F)C2CCN(C)CC2)cc1` [Example 129, 1-[(2,3-difluorophenyl)methyl]-1-(1-methylpiperidin-4-yl)-3-{[4-(2-methylpropoxy)phenyl]methyl}urea; Trifluoroacetic Acid], the Ki on 5HT2A is 50.1 nM. For `COc1ccc(CN(C(=O)NCc2ccc(OCC(C)C)cc2)C2CCN(C)CC2)c(OC)c1` [Example 2, 3-[(2,4-dimethoxyphenyl)methyl]-3-(1-methylpiperidin-4-yl)-1-{[4-(2-methylpropoxy)phenyl]methyl}urea], the Ki on 5HT2A was 3160 nM.
